Here are results for one compound from patent US11155668B2, “Contact-killing, QAC functionalized thermoplastic polyurethane for catheter applications” (THE UNIVERSITY OF AKRON, priority 2017, dated 2021).

The test system of test [1] is P. aeruginosa. The test is described as follows: Contact-killing assay (adapted from ISO 22196) on allyl-TPU blade-coated samples modified with Qx-SH. The class given is cell-based, Pseudomonas aeruginosa (ATCC 27853). To be noted: for Mean CFU/Sample Recovered, P. aeruginosa: n = 1, negative control polypropylene 7.94 × 10^6. On the procedure:
To functionalize the allyl-TPU blade-coated samples with Qx-SH reagents, thiol-ene reactions were performed using the same procedure described for rhodamine-SH. Briefly, blade-coated films of allyl-TPU (250 μm thick, 2.0 cm diameter, ca. 110 mg, 20 μmol allyl) were submerged in 2 mL of an Ar purged (30 min) aqueous solution containing Qx-SH (10.0 mM) and LAP (5.0 mM), and allowed to pre-soak for 30 min under Ar. UV-treated samples were irradiated for 30 min (λ=365 nm, I=1.2 mW·cm^−2) while phys. ads. samples were kept in the absence of UV light for 30 min to control for any antimicrobial activity that is contributed by non-covalently attached QAC. Following treatment, the dye/photoinitiator solutions were drawn up and discarded, and the samples were rinsed with 5 mL of DI water (3×) then submerged in 5 mL of DI water. The samples were further rinsed with 10% EtOH (3×) and soaked in 10% EtOH for 15 min (3×), rinsing with 10% EtOH in between each soak.
(§1) For antimicrobial testing, blade-coated samples and catheter tubing of allyl-TPU were sterilized by EtO sterilization using an Anprolene benchtop sterilizer (Anderson Products, Inc., Haw River, N.C.) following the manufacturer's protocol to deliver approximately 0.5 cc·L^−1 of EtO gas over a 12 h sterilization cycle at 35% humidity and room temperature, followed by a 48 h purge under vacuum. The bacterial strains used in this study included Staphylococcus epidermidis (ATCC 12228), Staphylococcus aureus (25923), Escherichia coli (ATCC 25922), Pseudomonas aeruginosa (ATCC 27853), Enterococcus faecalis (ATCC 29212), and methicillin-resistant Staphylococcus aureus (MRSA) (ATCC BAA-41).
The contact-killing assay was performed on physically adsorbed (phys. ads.), and UV-treated blade-coated samples modified with a series of Qx-SH reagents using a method adapted from ISO 22196. See, International Organization for Standardization. Measurement of antibacterial activity on plastics and other non porous surfaces (ISO 22196:2011), the disclosure of which is incorporated herein by reference in its entirety. Briefly, the samples were inoculated with same day cultures of select bacteria (e.g. E. coli, S. epidermidis) in dilute nutrient media (0.2% tryptic soy broth (TSB) in 1× phosphate buffered saline (PBS)) at approximately 150 colony-forming units (CFU)·mm^−2. Generally, 35 uL of 8.5×10^5 CFU/mL cultures were dispersed across the surface of the sample using sterile polypropylene cover films (area=198 mm^2). Inoculated samples were incubated in a humidified room air incubator (36° C., ca. 80% rel. humidity) for 20 h. Following incubation, surviving cells were recovered from the samples using vigorous agitation (i.e. vortexing for 20 s in PBS). Surviving cells were enumerated via 10-fold series dilution and plating 100 μL onto tryptic soy agar (TSA), incubating overnight and then plate counting CFU. The mean CFU recovered per sample (CFU/sample) were calculated by accounting for dilutions. Internal controls samples of polypropylene and chlorhexidine treated with polypropylene were included in the assay.

Test [2] concerns P. aeruginosa. The test is described as follows: 48 h biofilm formation assay in catheter tubing. The format is cell-based, Pseudomonas aeruginosa (ATCC 27853). On the procedure:
For post-fabrication functionalization of the inner lumen of allyl-TPU catheter tubing with Qx-SH reagents, 0.5 mL of an Ar purged solution containing Qx-SH (10.0 mM) and LAP (5.0 mM) was flowed through 25.0 cm segments of catheter tubing every 7.5 min for the duration of a 30 min pre-soak and 30 min UV treatment (or absence of UV for phys. ads. control). Following treatment, the catheter tubes were rinsed continuously for 30 s with DI water (3×), then rinsed continuously for 30 s with 10% EtOH (3×). All samples were blown dry with N2 and placed under vacuum for 24 h before X-ray photoelectron spectroscopy (XPS) analysis or ethylene oxide (EtO) sterilization.
as §1
Biofilm formation was analyzed using overnight cultures of P. aeruginosa grown in TSB and adjusted to an OD600=0.10. An assembly of catheter tubing was prepared using aseptic techniques, and included COOK™ BEACON™ TIP TORCON NB™ Advantage catheter segments (25.0 cm in length) denoted as “CC” and numbered 1-4 from upstream (1) to downstream (4). The catheter assembly was connected using 18 gauge blunt tip stainless steel needles (˜25 mm in length) sterilized in 100% EtOH. CC segments were located before, after, and in between the untreated, phys. ads., and UV-treated allyl-TPU catheter segments modified with Q8-SH to account for any downstream influence of the experimental catheters. With a peristaltic pump flowing at 1.5 mL·min^−1, fresh bacterial inoculum was continuously streamed through the catheter assembly for 2 h, followed by FAB medium (0.10 mM CaCl2, 0.01 mM Fe-EDTA, 0.15 mM (NH4)2SO4, 0.33 mM Na2HPO4, 0.20 mM KH2PO4, 0.50 mM NaCl, 0.50% (wt/vol) casamino acids, 1.0 mM MgCl2, and 10 mM sodium citrate) for 48 h. Samples were fixed with 50 mL of a 4% paraformaldehyde solution, rinsed with 200 mL of PBS, and submerged in PBS for further testing.
Photographs of the catheter tubing were taken using a camera with a 16-megapixel Sony Exmor RS IMX240 sensor and […] lens. Catheter cross-sections were cut (ca. 2.5 mm in length) from each catheter segment, rinsed thoroughly with DI water, and lyophilized for 24 h for scanning electron microscopy (SEM) analysis. SEM was performed on gold sputter-coated samples using a JEOL-7401 Field Emission Scanning Electron Microscope (JEOL USA, Inc., Peabody, Mass.) at an accelerating voltage of 2.0 kV under 45× and 300× magnification. In addition, lyophilized cross-sections (3.0 mm in length) from randomly selected locations along each catheter segment were placed vertically on a glass slide and imaged under brightfield microscope at 4× magnification. Using Olympus VS-Desktop software, the % biofilm blockage was determined by measuring the inner luminal area of untreated catheters compared to the area of the biofilm on the interior of the contaminated catheters (Equation 1).
[formula] Results are reported as averages with standard deviations (n=3) for each catheter segment.

Where [3] appears, read: UV-treated allyl-TPU catheter, 48 h.
[4] abbreviates: phys. ads. allyl-TPU catheter, 48 h.

Consider `CCCCCCCC[N+](C)(C)CCCCCCCCOC(=O)CCS.[Cl-]` [Q8-SH], for which, in the test with P. aeruginosa [1] (UV-treated samples), the “reduction of P. aeruginosa” value is given as “complete reduction” and the “Mean CFU/Sample Recovered, P. aeruginosa” value is on record as 0.00 CFU/Sample. Also, in the test on P. aeruginosa [1] (phys. ads. samples), the “reduction of P. aeruginosa” value is reported as “complete reduction” and the “Mean CFU/Sample Recovered, P. aeruginosa” value is listed as 0.00 CFU/Sample. For the same compound, the “biofilm formation compared to Cook catheter, untreated and phys. ads. controls (in words)” value in the test on P. aeruginosa [2] (UV-treated allyl-TPU catheter tubing, brightfield microscopy and SEM) was “more resistant to biofilm formation and less”. In the test on P. aeruginosa [2] (UV-treated allyl-TPU catheter, inner lumen modified, 48 h, n=3), the “% biofilm blockage (internal volume occlusion)” value is recorded as “ca. 15%”. In addition, in the test on P. aeruginosa [2] (setting [3]), the “reduction of biofilm blockage from CC1” value is on record as 85% and the “reduction of biofilm blockage from the untreated control” value is 69%. In the test with P. aeruginosa [2] (setting [4]), the “reduction of biofilm blockage from CC1” value turned out to be 77% and the “reduction of biofilm blockage from the untreated control” value is 53%.
